Experimental data published in patent publication US20220274913A1, “PROCESS FOR MANUFACTURING A SUBSTITUTED CYCLOHEXANECARBONITRILE” (SOLVAY SA, priority 2019, published 2022).
“Also recorded” adds a separate entry of the source.

Assays:
Assay type in all cases: physicochemical
[1] = Solubility tests of hydrogenated quinones (QH) in solvent mixtures (polar solvent + S-150), synthetic EQ/ETQ working solutions; conditions: for Test level values (theoretical gH2O2/kg of WS), comparison in words: Table 1; for Test level (gH2O2/kg) measured at 60° C. / Test level (gH2O2/kg) measured at 65° C. / Test level (gH2O2/kg) measured at 70° C. / Test level (gH2O2/kg) measured at 50° C. / Test level (gH2O2/kg) measured at 55° C.: 34*QH/240
Description: The determination of the QH solubility was performed on synthetic EQ/ETQ working solutions. These quinones mixed in the tested solvents have been hydrogenated to a fixed level and cooled down successively to 3 different temperatures before the measurement (min. 3 hours to stabilize the system between each measurement). The conditions applied for these tests were:
(*) the polar solvents tested were sextate, decanenitrile, 2,2,6-trimethylcyclohexanecarbonitrile (C10A), 2,2,5,6-tetramethylcyclohexanecarbonitrile (C11A) and 1,2,2,4-tetramethylcyclohexylcarbonitrile (C11B). […] In this Figure, Kb stands for the weight partition coefficient of hydrogen peroxide between the water and the working solution (mixture of quinones and organic solvents). It is calculated using the following formula: […]
The maximum solubility of a hydrogenated quinone (QH) in a solvent mixture is directly correlated with the productivity of the working solution. The higher is the QH solubility, the higher will be the theoretical quantity of hydrogen peroxide achievable per kg of WS (Productivity). These theoretical values, designated by the terms “Test level (gH2O2/kg of WS) measured at . . . ” in Table 1, were calculated as follows: […]
1 mole (240 g) ETQH (which actually is the QH in our Examples) per kg of WS will produce 1 mole (34 g) of H2O2 per kg of WS.

[2] = Weight partition coefficient Kb of hydrogen peroxide between the water and the working solution; H2O2 in organic phase
Description: (*) the polar solvents tested were sextate, decanenitrile, 2,2,6-trimethylcyclohexanecarbonitrile (C10A), 2,2,5,6-tetramethylcyclohexanecarbonitrile (C11A) and 1,2,2,4-tetramethylcyclohexylcarbonitrile (C11B). […] In this Figure, Kb stands for the weight partition coefficient of hydrogen peroxide between the water and the working solution (mixture of quinones and organic solvents). It is calculated using the following formula:
Kb=(g H2O2/kg aqueous phase)/(g H2O2/kg organic phase)

[3] = TOC in the H2O2 obtained (solubility of the solvent in H2O2); conditions: for Solubility of the solvent in H2O2 (as indicated by level of TOC in the H2O2 obtained): comparison in words, Table 2
[4] = Approx density of polar solvents at ambient temperature
[5] = Polar solvent 30% / Solvesso 150 70%
[6] = Polar solvent 40% / Solvesso 150 60%
[7] = Polar solvent 50% / Solvesso 150 50%
[8] = Polar solvent 60% / Solvesso 150 40%
[9] = Polar solvent 70% / Solvesso 150 30%
[10] = polar solvent 77% / S150 23%, listed as 4MCH-CN

| Compound | Test level values (theoretical gH2O2/kg of WS), comparison in words [1] | Test level (gH2O2/kg) measured at 60° C. ([1]; polar solvent 50% / S150 50%) [gH2O2/kg] | Test level (gH2O2/kg) measured at 65° C. ([1]; polar solvent 50% / S150 50%) [gH2O2/kg] | Test level (gH2O2/kg) measured at 70° C. ([1]; polar solvent 50% / S150 50%) | H2O2 in OP [2, 5] [g/kg] | H2O2 in OP [2, 6] [g/kg] | H2O2 in OP [2, 7] [g/kg] | H2O2 in OP [2, 8] [g/kg] | H2O2 in OP [2, 9] [g/kg] | TOC in H2O2 [3, 5] [ppm] | TOC in H2O2 [3, 6] [ppm] | TOC in H2O2 [3, 7] [ppm] | TOC in H2O2 [3, 8] [ppm] | TOC in H2O2 [3, 9] [ppm] | Approx density of polar solvents at amb T° [4] [kg/L] | Solubility of the solvent in H2O2 (as indicated by level of TOC in the H2O2 obtained) [3] | other results |
| --- | --- | --- | --- | --- | --- | --- | --- | --- | --- | --- | --- | --- | --- | --- | --- | --- | --- |
| CC1CCCC(C)(C)C1C#N (stereo not shown) [C10A, 2,2,6-trimethylcyclohexanecarbonitrile] | much higher (almost the double in fact) than with sextate or a linear nitrile like decanenitrile | 10.5 | 11.4 | full soluble | 0.9821 | 1.466 | 2.135 | 3.08 | 3.871 | 928 | 1042 | 1248 | 1456 | 1684 | ~0.89 | – | QH (g/kg) measured at 70° C. ([1]; polar solvent 50% / S150 50%): full soluble; Test level (gH2O2/kg) measured at 60° C. ([1]; polar solvent 60% / S150 40%): 15.6 gH2O2/kg; QH (g/kg) measured at 65° C. ([1]; polar solvent 60% / S150 40%): full soluble; Test level (gH2O2/kg) measured at 65° C. ([1]; polar solvent 60% / S150 40%): full soluble; QH (g/kg) measured at 70° C. ([1]; polar solvent 60% / S150 40%): full soluble; Test level (gH2O2/kg) measured at 70° C. ([1]; polar solvent 60% / S150 40%): full soluble |
| CC1CCC(C)(C)C(C#N)C1C (stereo not shown) [C11A, 2,2,5,6-tetramethylcyclohexanecarbonitrile] | reach the absolute maximum theoretical value | 9.8 | 10.8 | 14.8 gH2O2/kg | 0.919 | 1.271 | – | 2.332 | 2.786 | 281 | 268 | 269 | 274 | 291 | ~0.895 | less soluble in H2O2 than solvent C10A | Test level (gH2O2/kg) measured at 50° C. ([1]; polar solvent 50% / S150 50%): 7.7 gH2O2/kg; Test level (gH2O2/kg) measured at 55° C. ([1]; polar solvent 50% / S150 50%): 8.6 gH2O2/kg; Test level (gH2O2/kg) measured at 50° C. ([1]; polar solvent 77% / S150 23%): 11.9 gH2O2/kg; Test level (gH2O2/kg) measured at 55° C. ([1]; polar solvent 77% / S150 23%): 12.8 gH2O2/kg; QH (g/kg) measured at 60° C. ([1]; polar solvent 77% / S150 23%): complete solubility; Test level (gH2O2/kg) measured at 60° C. ([1]; polar solvent 77% / S150 23%): 16.3 gH2O2/kg; Test level (gH2O2/kg) measured at 60° C. [1, 10]: full soluble; QH (g/kg) measured at 60° C. [1, 10]: full soluble; QH (g/kg) measured at 65° C. ([1]; polar solvent 77% / S150 23%): full soluble; Test level (gH2O2/kg) measured at 65° C. ([1]; polar solvent 77% / S150 23%): full soluble; QH (g/kg) measured at 70° C. ([1]; polar solvent 77% / S150 23%): full soluble; Test level (gH2O2/kg) measured at 70° C. ([1]; polar solvent 77% / S150 23%): full soluble |
| CC1CCC(C)(C#N)C(C)(C)C1 (stereo not shown) [C11B, 1,2,2,4-tetramethylcyclohexanecarbonitrile] | – | – | – | – | – | 1.632 | 2.487 | 3.167 | 3.805 | – | 308 | 328 | 280 | 290 | – | less soluble in H2O2 than solvent C10A | Test level (gH2O2/kg) measured at 55° C. ([1]; polar solvent 52% / S150 48%): 9.4 gH2O2/kg; Test level (gH2O2/kg) measured at 60° C. ([1]; polar solvent 52% / S150 48%): 10.8 gH2O2/kg; Test level (gH2O2/kg) measured at 65° C. ([1]; polar solvent 52% / S150 48%): 15.1 gH2O2/kg; QH (g/kg) measured at 70° C. ([1]; polar solvent 52% / S150 48%): full soluble; Test level (gH2O2/kg) measured at 70° C. ([1]; polar solvent 52% / S150 48%): full soluble; Test level (gH2O2/kg) measured at 55° C. ([1]; polar solvent 70% / S150 30%): 15.5 gH2O2/kg; QH (g/kg) measured at 60° C. ([1]; polar solvent 70% / S150 30%): complete solubility; also recorded: full soluble; QH (g/kg) measured at 65° C. ([1]; polar solvent 70% / S150 30%): full soluble; Test level (gH2O2/kg) measured at 65° C. ([1]; polar solvent 70% / S150 30%): full soluble; QH (g/kg) measured at 70° C. ([1]; polar solvent 70% / S150 30%): full soluble; Test level (gH2O2/kg) measured at 70° C. ([1]; polar solvent 70% / S150 30%): full soluble |
| CCCCCCCCCC#N [Decanenitrile, decanenitrile, reference compound] | – | – | – | – | – | – | – | – | – | – | – | – | – | – | ~0.83 | – | Test level (gH2O2/kg) measured at 60° C. ([1]; polar solvent 35% / S150 65%): 8.8 gH2O2/kg; Test level (gH2O2/kg) measured at 65° C. ([1]; polar solvent 35% / S150 65%): 10.1 gH2O2/kg; Test level (gH2O2/kg) measured at 70° C. ([1]; polar solvent 35% / S150 65%): 11.1 gH2O2/kg |
| methyl cyclohexyl acetate [Sextate, reference compound] | – | – | – | – | – | – | – | – | – | – | – | – | – | – | ~0.94 | – | QH (g/kg) measured at 60° C. ([1]; polar solvent 40% / S150 60%): 52 g/kg; Test level (gH2O2/kg) measured at 60° C. ([1]; polar solvent 40% / S150 60%): 7.4 gH2O2/kg; QH (g/kg) measured at 65° C. ([1]; polar solvent 40% / S150 60%): 60.8 g/kg; Test level (gH2O2/kg) measured at 65° C. ([1]; polar solvent 40% / S150 60%): 8.6 gH2O2/kg; QH (g/kg) measured at 70° C. ([1]; polar solvent 40% / S150 60%): 68 g/kg; Test level (gH2O2/kg) measured at 70° C. ([1]; polar solvent 40% / S150 60%): 9.6 gH2O2/kg |
